# Assay results taken from patent US11173124B2, “Oral delivery of GLP-1 peptide analogs” (MEDIMMUNE LIMITED, priority 2017, dated 2021).
# pEC50: −log10 of the molar value. Like-named read-outs stand apart in the source and are kept apart here. Starred links: 1 amine or outer side, 2 acyl side, 3 side chain; linkers in the order of their positions; H or OH if unused. Non-standard residues stand in square brackets, D forms with d. Residues, ends and D or L forms follow the SMILES beside them. Groups on a side chain read outwards from the residue. *: point of attachment. γGlu = O=C(O)[C@H](CCC(=O)[*:2])N[*:1]; αMeF = C[C@](N)(Cc1ccccc1)C(=O)O; αMeK = C[C@](N)(CCCCN)C(=O)O; Lauroyl = CCCCCCCCCCCC(=O)*; αMeS = C[C@](N)(CO)C(=O)O; AEEA = NCCOCCOCC(=O)O; Aib = CC(C)(N)C(=O)O
# Assays:
# [1] = molecular target: T1, GLP-1 receptor (Rattus norvegicus, UniProt P32301); assay: cAMP assay, INSle assay as described in WO 2016/198544; type: cell-based; settings: in vitro potency at the GLP-1 receptor
# T1 construct: endogenous in cells; host or cells: INS-1E rat insulinoma cells (printed as 'INSle')
# T1 sequence (P32301 22-463): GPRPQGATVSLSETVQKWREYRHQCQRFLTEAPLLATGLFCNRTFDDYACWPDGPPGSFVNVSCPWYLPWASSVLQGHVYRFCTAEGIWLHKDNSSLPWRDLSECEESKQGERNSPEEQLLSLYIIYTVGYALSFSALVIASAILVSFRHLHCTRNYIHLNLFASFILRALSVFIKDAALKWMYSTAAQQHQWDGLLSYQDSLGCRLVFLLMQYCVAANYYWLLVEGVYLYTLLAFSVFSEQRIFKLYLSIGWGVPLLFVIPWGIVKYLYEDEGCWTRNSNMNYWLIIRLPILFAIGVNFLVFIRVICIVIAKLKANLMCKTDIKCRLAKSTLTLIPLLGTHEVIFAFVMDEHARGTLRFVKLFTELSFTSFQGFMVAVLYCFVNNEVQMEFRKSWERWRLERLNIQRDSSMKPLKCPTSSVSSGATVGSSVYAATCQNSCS
# Source text: The biological activity of a GLP-1 peptide analog can be evaluated, for example, by assessing the ability of the peptide to activate a receptor (e.g., a GLP-1 receptor). Peptide activation of such receptors results in downstream accumulation of cAMP second messenger which can be measured in a functional activity assay.
# [2] = Rat intraduodenal study, MEDI7219 with new gallate derivatives and other enhancers (Example 8); type: in vivo
# Procedure: The next rat ID administration study was performed to assess the oral bioavailability and pharmacokinetics of MEDI7219 (SEQ ID NO:2) formulations containing new gallate derivatives, sodium 2-(3,4,5-trihydroxybenzoyloxy) acetate and butanoate, sodium cholate with propyl gallate, sodium caprate with propyl gallate, sodium caprate with propyl gallate and citric acid, and sucrose monododecanoate.
# [3] = Canine study, compositions around 6.5:1 Na CDC:PG ratio in enterically coated tablets (Example 23, Table 30); type: in vivo; settings: dogs, oral enterically coated tablet
# Source text: The following materials and methods were used for quantitative measurements of GLP-1 peptide analogs in plasma (e.g., rat or dog plasma) in the Examples below. These methods used a SCIEX 6600 TripleTOF mass spectrometer coupled with a Shimadzu ultra-high performance liquid chromatography (UHPLC). The specificity of the method was ensured by the retention time, the selected mass for Single-Reaction-Monitoring (SRM) mode, and the selected fragment mass in MS/MS (MS^2) mode.
# The plasma extraction procedure used the following steps: • Samples, standards, and quality controls were incubated until they reached room temperature. They were then incubated at 60° C. for 2 minutes and cooled down to room temperature, vortexed, and spun down. • 70 μL of samples, standards, or quality controls were transferred into a 1 mL 96-well plate. • In each well, 420 uL of Precipitation Solution was added. The plate was sealed and shook for 10 minutes on a plate shaker at 600 rpm. • The plate was centrifuged at 18G, 2500 RFC, 20° C. for 10 minutes. • The plate was carefully removed, and the upper clear supernatant was extracted with a 200 uL multichannel pipette into a new 96-well protein lobind plate. The supernatant was extracted twice for each well, and the supernatants were combined. • The Plate was placed in TurboVap and the extracted supernatant was dried completely with heated (65° C.) Nitrogen gas at 60 Fahrenheit (Fh). • After the plate was completely dry, the plates were covered and incubated at room temperature for at least 30 minutes until the plate returned back to ambient temperature. • 150 μL of Reconstitution solution was added to each well. The plate was covered with a pierceable place seal and shaken at 600 rpm for 10 minutes. • The samples were submitted to the LC-MS/MS on the same day of Preparation
# Quantification of the data obtained using the high resolution SCIEX 6600 instrument was then performed as follows: • For the quantification, extracted ion chromatograms (XIC) using 0.2 Da m/z extraction window centered on the accurate mass of each fragment ion were generated. Accurate mass was calculated from the structure of the compound. […] Concentrations of the target analyte in unknown samples were obtained by regression analysis using linear fits of peak areas vs. analyte concentration, weighted 1/(concentration). • The quality of the assay was controlled by the quality control samples. • Either Experiment 1 or Experiment 2 could be used for the quantification of the GLP-1 peptide analogs in high resolution mode.
# [4] = Second rat intraduodenal study, permeation enhancers from Caco-2 (Example 5); type: in vivo; settings: for AUC / Cmax / Tmax / half-life: in vivo, pH 8, rat
# Procedure: Solution formulations comprising GLP-1 peptide analogs were injected into rats in the duodenum segment of the small intestine. The first ID study involved the use of sodium caprate as the permeation enhancer and the SEQ ID NO:3 GLP-1 peptide analog. Absolute bioavailability (% F) is a percentage-expressed measure of systemic drug exposure after oral, or in the current example intraduodenal, administration to the systemic exposure generated with intravenous (IV) administration of drug solution. Absolute bioavailability, (% F), is calculated as a percentage of systemic, or blood, drug concentration area under curve (AUC) of the AUC of IV administration adjusted to the amounts of drug given via these routes of administration.
# Following the initial rat ID study, a second rat ID administration study was performed to evaluate the influence of permeation enhancers identified from the Caco-2 model study. That is, tetradecyl maltoside, sodium chenodeoxycholate, and combination of sodium chenodeoxycholate and propyl gallate were tested for their effect on oral bioavailability of the SEQ ID NO:3 peptide (Table 6).
# [5] = 4:1 ratio, 120 mg Na CDC and 30 mg PG, 3 mg MEDI7219
# [6] = 14:1 ratio, 140 mg Na CDC and 10 mg PG, 3 mg MEDI7219
# [7] = 29:1 ratio, 145 mg Na CDC and 5 mg PG, 3 mg MEDI7219
# [8] = ID, 1 mg/kg peptide + 25 mg/kg Na CDC + 12.5 mg/kg PG, PBS pH 8.0
# [9] = ID, 1 mg/kg peptide + 25 mg/kg Na CDC, PBS pH 8.0
# [10] = ID, 1 mg/kg peptide + 25 mg/kg Tetradecylmaltoside, PBS pH 8.0
# [11] = ID, 1 mg/kg peptide + 50 mg/kg Na CDC, PBS pH 8.0
# [12] = ID, 1 mg/kg peptide + 50 mg/kg Tetradecylmaltoside, PBS pH 8.0
# [13] = ID, 10 mg/kg peptide + 50 mg/kg Na CDC + 25 mg/kg PG, PBS pH 8.0
# [14] = ID, 10 mg/kg peptide + 50 mg/kg Na CDC, PBS pH 8.0
# [15] = ID, 10 mg/kg peptide + 50 mg/kg Tetradecylmaltoside, PBS pH 8.0
# [16] = 1 mg/kg, ID, 1 mg/kg peptide, no permeation enhancer, PBS pH 8.0
# [17] = iv, 0.01 mg/kg, 0.01 mg/kg peptide in PBS pH 8.0
# [18] = ID, 1 mg/kg peptide + 50 mg/kg Na CDC + 25 mg/kg PG, PBS pH 8.0
smiles,measurement,setting,value
"CCCCCCCCCCCC(=O)N[C@@H](CCC(=O)NCCOCCOCC(=O)NCCOCCOCC(=O)NCCCC[C@H](NC(=O)[C@H](C)NC(=O)[C@@H](NC(=O)[C@](C)(Cc1ccccc1)NC(=O)[C@H](CCC(=O)O)NC(=O)[C@](C)(CCCCN)NC(=O)[C@H](C)NC(=O)[C@H](C)NC(=O)[C@H](CCC(=O)O)NC(=O)CNC(=O)[C@H](CCC(=O)O)NC(=O)[C@H](CC(C)C)NC(=O)[C@H](CCCCNC(=O)COCCOCCNC(=O)COCCOCCNC(=O)CC[C@H](NC(=O)CCCCCCCCCCC)C(=O)O)NC(=O)[C@H](CO)NC(=O)[C@](C)(CO)NC(=O)[C@@H](NC(=O)[C@H](CC(=O)O)NC(=O)[C@H](CO)NC(=O)[C@@H](NC(=O)[C@](C)(Cc1ccccc1)NC(=O)[C@H](CO)NC(=O)CNC(=O)[C@H](CCC(=O)O)NC(=O)C(C)(C)NC(=O)[C@@H](N)Cc1c[nH]cn1)[C@@H](C)O)C(C)C)[C@@H](C)CC)C(=O)N[C@H](C(=O)N[C@H](C(=O)N[C@@H](CCC(=O)O)C(=O)NCC(=O)NCC(N)=O)C(C)C)C(C)C)C(=O)O [MEDI7219, Free-H-[AIB]-EGS-[αMePhe]-TSDV-[αMeSer]-SK[(PEG2)2-γE-Lauroyl]-LEGEAA-[αMeLys]-E-[αMePhe]-IAK[(PEG2)2-γE-Lauroyl]-VVEGG-amide] (H-H[Aib]EGS[αMeF]TSDV[αMeS]SK([AEEA-AEEA-γGlu-Lauroyl])LEGEAA[αMeK]E[αMeF]IAK([AEEA-AEEA-γGlu-Lauroyl])VVEGG-NH2)",pEC50,[1],~9.94
same,Bioavailability F (%),"[2]; ID, 1 mg/kg, Group 6: 12.5 mg/mL Sodium Cholate, 25 mg/mL PG (25 + 50 mg/kg)",no bioavailability
same,Bioavailability F (%),"[2]; ID, 1 mg/kg, Group 7: 12.5 mg/mL Sodium Caprate, 25 mg/mL PG (25 + 50 mg/kg)",~0.6%
same,Bioavailability F (%),"[2]; ID, 1 mg/kg, Group 8: 12.5 mg/mL Sodium Caprate, 25 mg/mL PG, 10 mg/mL Citric Acid",0 (NA) %
same,exposure,"[2]; ID, addition of citric acid to sodium caprate and propyl gallate",below level of quantification
same,Bioavailability F (%),"[2]; IV, 0.01 mg/kg, Group 1 control in 50 mM Tris, 150 mM Mannitol, 0.02% Polysorbate 80, pH 8.5",100%
same,F,[3]; [5],~5.7%
same,PK variability (CV) at C max,[3]; [5],52.8%
same,F,[3]; [6],~4.6%
same,PK variability at C max,[3]; [6],84.4%
same,F,[3]; [7],~3.8%
same,PK variability at C max,[3]; [7],135.3%
same,F,"[3]; No PG formulation, 150 mg Na CDC",~0.6%
"CC[C@H](C)[C@H](NC(=O)C(C)(Cc1ccccc1)NC(=O)[C@H](CCC(=O)O)NC(=O)[C@H](CCCCNC(=O)COCCOCCNC(=O)COCCOCCNC(=O)CC[C@H](NC(=O)CCCCCCCCCCCCCCCCC(=O)O)C(=O)O)NC(=O)[C@H](C)NC(=O)[C@H](C)NC(=O)[C@H](CCC(=O)O)NC(=O)CNC(=O)[C@H](CCC(=O)O)NC(=O)[C@H](CC(C)C)NC(=O)C(C)(Cc1ccccc1)NC(=O)[C@H](CO)NC(=O)C(C)(CO)NC(=O)[C@@H](NC(=O)[C@H](CC(=O)O)NC(=O)[C@H](CO)NC(=O)[C@@H](NC(=O)C(C)(Cc1ccccc1)NC(=O)[C@H](CO)NC(=O)CNC(=O)[C@H](CCC(=O)O)NC(=O)C(C)(C)NC(=O)[C@@H](N)Cc1c[nH]cn1)[C@@H](C)O)C(C)C)C(=O)N[C@@H](C)C(=O)NC(C)(Cc1ccccc1)C(=O)N[C@H](C(=O)N[C@H](C(=O)NC(C)(CCCCN)C(=O)NCC(=O)NCC(N)=O)C(C)C)C(C)C (stereo partly drawn) [SEQ ID NO: 3, Free-H-[AIB]-EGS-[αMePhe]-TSDV-[αMeSer]-S-[αMePhe]-LEGEAAK[(PEG2)2-γE-Stearate]-E-[αMePhe]-IA-[αMePhe]-VV-[αMeLys]-GG-amide]",F,[4]; [8],0.28%
same,F,[4]; [9],0.12%
same,F,[4]; [10],0.08%
same,F,[4]; [11],0.21%
same,F,[4]; [12],0.06%
same,increase of oral bioavailability,"[4]; ID, 1 mg/kg peptide, 50 mg/kg sodium chenodeoxycholate and 25 mg/kg propyl gallate (to 0.39%)",~20 fold
same,F,[4]; [13],0.42%
same,F,[4]; [14],0.28%
same,F,[4]; [15],0.07%
same,F,"[4]; Intravenous, 0.01 mg/kg peptide in PBS pH 8.0",100%
same,AUC,[4]; [16],19.4 ng·h/mL
same,Cmax,[4]; [16],3.16 ng/mL
same,Tmax,[4]; [16],480 min
same,AUC,[4]; [17],1030 ng·h/mL
same,Cmax,[4]; [17],96.2 ng/mL
same,half-life,"[4]; iv, 0.01 mg/kg, Intravenous, 0.01 mg/kg peptide in PBS pH 8.0, read-out: T ½ (converted)",174 min
same,AUC,[4]; [8],293 ng·h/mL
same,Cmax,[4]; [8],39 ng/mL
same,Tmax,[4]; [8],18 min
same,half-life,"[4]; ID, 1 mg/kg peptide + 25 mg/kg Na CDC + 12.5 mg/kg PG, PBS pH 8.0, read-out: T ½ (converted)",546 min
same,AUC,[4]; [9],121 ng·h/mL
same,Cmax,[4]; [9],21.3 ng/mL
same,Tmax,[4]; [9],18 min
same,half-life,"[4]; ID, 1 mg/kg peptide + 25 mg/kg Na CDC, PBS pH 8.0, read-out: T ½ (converted)",430 min
same,AUC,[4]; [10],87.3 ng·h/mL
same,Cmax,[4]; [10],5.4 ng/mL
same,Tmax,[4]; [10],60 min
same,half-life,"[4]; ID, 1 mg/kg peptide + 25 mg/kg Tetradecylmaltoside, PBS pH 8.0, read-out: T ½ (converted)",1040 min
same,AUC,[4]; [18],402 ng·h/mL
same,Cmax,[4]; [18],58.1 ng/mL
same,Tmax,[4]; [18],30 min
same,half-life,"[4]; ID, 1 mg/kg peptide + 50 mg/kg Na CDC + 25 mg/kg PG, PBS pH 8.0, read-out: T ½ (converted)",594 min
same,AUC,[4]; [11],212 ng·h/mL
same,Cmax,[4]; [11],30.9 ng/mL
same,Tmax,[4]; [11],30 min
same,half-life,"[4]; ID, 1 mg/kg peptide + 50 mg/kg Na CDC, PBS pH 8.0, read-out: T ½ (converted)",558 min
same,AUC,[4]; [12],63.2 ng·h/mL
same,Cmax,[4]; [12],5.8 ng/mL
same,Tmax,[4]; [12],60 min
same,half-life,"[4]; ID, 1 mg/kg peptide + 50 mg/kg Tetradecylmaltoside, PBS pH 8.0, read-out: T ½ (converted)",618 min
same,AUC,[4]; [13],4330 ng·h/mL
same,Cmax,[4]; [13],670 ng/mL
same,Tmax,[4]; [13],30 min
same,half-life,"[4]; ID, 10 mg/kg peptide + 50 mg/kg Na CDC + 25 mg/kg PG, PBS pH 8.0, read-out: T ½ (converted)",658 min
same,AUC,[4]; [14],2920 ng·h/mL
same,Cmax,[4]; [14],380 ng/mL
same,Tmax,[4]; [14],30 min
same,half-life,"[4]; ID, 10 mg/kg peptide + 50 mg/kg Na CDC, PBS pH 8.0, read-out: T ½ (converted)",564 min
same,AUC,[4]; [15],705 ng·h/mL
same,Cmax,[4]; [15],51.5 ng/mL
same,Tmax,[4]; [15],30 min
same,half-life,"[4]; ID, 10 mg/kg peptide + 50 mg/kg Tetradecylmaltoside, PBS pH 8.0, read-out: T ½ (converted)",491 min
